Reference: patent US9440933B2, “Azole derivative, method for producing same, intermediate compound, and agricultural or horticultural chemical agent and industrial material protecting agent” (KUREHA CORPORATION, priority 2011, dated 2016)

Key:
[1] = system: wheat leaf blight-causing microbe; experiment: Antimicrobial activity to wheat leaf blight-causing microbe (PDA plate, hyphal expansion inhibition); assay type: cell-based, Septoria tritici; conditions: PDA medium, 25° C., 14 days; for inhibition at 50 µg/mL / Growth inhibition: Concentration 50 mg/L; for inhibition at 50 µg/mL: read-out: Growth inhibition
Protocol: In this Test Example, antimicrobial activity of the inventive compounds to wheat leaf blight-causing microbe was determined and compared with that of the comparative compound (1).

[2] = system: wheat leaf rust-causing microbe; experiment: Wheat leaf rust-controlling activity (foliar spray, pot test); assay type: in vivo, Puccinia recondita; conditions: Concentration 25 g/ha; wettable powder sprayed on wheat (Norin No. 61), 9 to 14 days after inoculation
[3] = system: Wheat fusarium blight-causing microbe (Fusarium graminearum); assay type: cell-based; conditions: 50 mg/L
[4] = system: Rice blast-causing microbe (Pyricularia oryzae); assay type: cell-based; conditions: 50 mg/L
[5] = system: wheat powdery mildew-causing microbes; experiment: Controlling activity to wheat powdery mildew of seed treatment (pot test); assay type: in vivo, Erysiphe graminis f. sp tritici; conditions: 2 mg in DMSO applied to wheat seeds 1 g, 14 to 28 days after seeding
Protocol: Controlling activity to wheat powdery mildew was examined in a pot test. Each of the inventive compounds […]-53, and a comparative compound (1) was weighed in an amount of 2 mg and dissolved in DMSO (18 μl). The solution thus prepared was applied to wheat seeds 1 g in a vial, 8 wheat seeds were seeded in a 80 cm^2 pot. The wheat was grown, as water was supplied from blow, in a greenhouse where wheat powdery mildew-causing microbes are present abundantly. The incidence rate was determined and the controlling rate and additionally the controlling index calculated 14 to 28 days after seeding. The controlling rate was calculated and the wheat powdery mildew controlling index determined according to the following equation: Controlling rate=(1-Incidence rate in treated region/Incidence rate in non-treated region)×100(%) [table]

[6] = system: Wheat glume blotch-causing microbe (Phaeosphaeria nodorum); experiment: Antimicrobial activity to various pathogenic microbes: P.n; conditions: 50 mg/L
Protocol: (§1) An inventive compound was dissolved in dimethylsulfoxide 2 ml. The solution 0.6 ml was added to a PDA medium (potato-dextrose-agar medium) 60 ml at around 60° C.
(§2) A flat plate containing a test microbe (wheat leaf blight-causing microbe) cultured separately was punched into pieces with a cork borer having a diameter of 4 mm and the circular plate obtained was placed on the flat plate media containing the chemical described above. The plates were cultured at 25° C. for 14 days after inoculation and the diameter of the microbial colony was determined. Hyphal expansion-inhibiting rate was calculated according to the following equation: R=100(dc−dt)/dc (wherein, R: hyphal expansion-inhibiting rate (%), dc: diameter of microbial colony on non-treated flat plate, dt: diameter of microbial colony on chemically-treated flat plate).
(§3) In this Test Example, the antimicrobial activity of the inventive compounds to various plant disease-causing fungi and industrial material-eroding microorganisms was studied by the method described in Example 1.
(§4) The results thus obtained were evaluated in 5 stages according to the criteria below:
Wheat glume blotch-causing microbe (Phaeosphaeria nodorum) P.n

[7] = system: Wheat eye spot-causing microbe (Pseudocercoporella herpotrichoides); experiment: Antimicrobial activity to various pathogenic microbes: P.h; conditions: 50 mg/L
Protocol: as §1
(§5) The plates were cultured at 25° C. for 14 days after inoculation and the diameter of the microbial colony was determined. Hyphal expansion-inhibiting rate was calculated according to the following equation: R=100(dc−dt)/dc (wherein, R: hyphal expansion-inhibiting rate (%), dc: diameter of microbial colony on non-treated flat plate, dt: diameter of microbial colony on chemically-treated flat plate).
as §4
Wheat eye spot-causing microbe (Pseudocercoporella herpotrichoides) P.h

[8] = system: Barley loose smut-causing microbe (Ustilago nuda); experiment: Antimicrobial activity to various pathogenic microbes: U.n; conditions: 50 mg/L
Protocol: as §1, §5, §4
Barley loose smut-causing microbe (Ustilago nuda) U.n

[9] = system: Rice bakanae disease-causing microbe (Gibberella fujikuroi); experiment: Antimicrobial activity to various pathogenic microbes: G.f; conditions: 50 mg/L
Protocol: as §1, §2, §4

[10] = system: Apple alternaria blotch-causing microbe (Alternaria alternata); experiment: Antimicrobial activity to various pathogenic microbes: A.m; conditions: 50 mg/L
Protocol: as §1, §2, §3, §4
Apple alternaria blotch-causing microbe (Alternaria alternata) A.m

[11] = system: Sclerotinia rot-causing microbe (Sclerotinia sclerotiorum); experiment: Antimicrobial activity to various pathogenic microbes: S.s; conditions: 50 mg/L
Protocol: as §1, §2, §4
Sclerotinia rot-causing microbe (Sclerotinia sclerotiorum) S.s

[12] = system: Gray mold-causing microbe (Botrytis cinerea); experiment: Antimicrobial activity to various pathogenic microbes: B.c; conditions: 50 mg/L
Protocol: as §1, §2, §3, §4
Gray mold-causing microbe (Botrytis cinerea) B.c

[13] = system: Cucumber Fusarium wilt-causing microbe (Fusarium oxysporum); experiment: Antimicrobial activity to various pathogenic microbes: F.c; conditions: 50 mg/L
Protocol: as §1, §2, §4

[14] = system: Barley scald-causing microbe (Rhynchosporium secalis); experiment: Antimicrobial activity to various pathogenic microbes: R.sec; conditions: 50 mg/L
Protocol: as §1, §2, §3, §4
Barley scald-causing microbe (Rhynchosporium secalis) R.sec

wheat = experiment: Damage to wheat (growth inhibition) by seed treatment (pot test); conditions: 2 mg in DMSO applied to wheat seeds 1 g, 14 to 28 days after seeding, larger index = smaller damage

| SMILES | inhibition at 50 µg/mL ([1]; 336 h) | inhibition at 1.25 µg/mL ([1]; 336 h, test sample concentration 1.25 mg/L, read-out: hyphal expansion-inhibiting rate) | Controlling index [2] | Growth inhibition (hyphal expansion-inhibiting rate grade) F.g [3] | Growth inhibition (hyphal expansion-inhibiting rate grade) P.o [4] | Controlling index Wheat powdery mildew [5] | Growth inhibition (hyphal expansion-inhibiting rate grade) P.n [6] | Growth inhibition (hyphal expansion-inhibiting rate grade) P.h [7] | Growth inhibition (hyphal expansion-inhibiting rate grade) U.n [8] | Growth inhibition (hyphal expansion-inhibiting rate grade) G.f [9] | Growth inhibition (hyphal expansion-inhibiting rate grade) A.m [10] | Growth inhibition (hyphal expansion-inhibiting rate grade) S.s [11] | Growth inhibition (hyphal expansion-inhibiting rate grade) B.c [12] | Growth inhibition (hyphal expansion-inhibiting rate grade) F.c [13] | Growth inhibition (hyphal expansion-inhibiting rate grade) R.sec [14] | Damage index Growth inhibition (wheat) | Growth inhibition [1] |
| --- | --- | --- | --- | --- | --- | --- | --- | --- | --- | --- | --- | --- | --- | --- | --- | --- | --- |
| CCOC(=O)[C@]1(C)CC[C@@H](Cc2ccc(Cl)cc2)[C@]1(O)Cn1cncn1 (racemic) [Compound I-3, ethyl-(1RS,2RS,3SR)-3-(4-chlorobenzyl)-2-hydroxy-1-methyl-2-(1H-1,2,4-triazol-1-ylmethyl)cyclopentanecarboxylate] | > 80% | ≥ 80% | 5 (81 to 100) | 5 (hyphal expansion-inhibiting rate: 80% or more) | 5 (hyphal expansion-inhibiting rate: 80% or more) | 5 (Controlling rate: 40 or more) | 5 (hyphal expansion-inhibiting rate: 80% or more) | 5 (hyphal expansion-inhibiting rate: 80% or more) | 5 (hyphal expansion-inhibiting rate: 80% or more) | 5 (hyphal expansion-inhibiting rate: 80% or more) | 5 (hyphal expansion-inhibiting rate: 80% or more) | 5 (hyphal expansion-inhibiting rate: 80% or more) | 5 (hyphal expansion-inhibiting rate: 80% or more) | 5 (hyphal expansion-inhibiting rate: 80% or more) | 5 (hyphal expansion-inhibiting rate: 80% or more) | 1 (60% or more and less than 80%) | – |
| C=CCOC(=O)[C@]1(C)CC[C@@H](Cc2ccc(Cl)cc2)[C@]1(O)Cn1cncn1 (racemic) [Compound I-4, allyl-(1RS,2RS,3SR)-3-(4-chlorobenzyl)-2-hydroxy-1-methyl-2-(1H-1,2,4-triazol-1-ylmethyl)cyclopentanecarboxylate] | > 80% | – | 5 (81 to 100) | 5 (hyphal expansion-inhibiting rate: 80% or more) | 5 (hyphal expansion-inhibiting rate: 80% or more) | – | 5 (hyphal expansion-inhibiting rate: 80% or more) | 5 (hyphal expansion-inhibiting rate: 80% or more) | 5 (hyphal expansion-inhibiting rate: 80% or more) | 5 (hyphal expansion-inhibiting rate: 80% or more) | 5 (hyphal expansion-inhibiting rate: 80% or more) | 5 (hyphal expansion-inhibiting rate: 80% or more) | 5 (hyphal expansion-inhibiting rate: 80% or more) | 5 (hyphal expansion-inhibiting rate: 80% or more) | 5 (hyphal expansion-inhibiting rate: 80% or more) | – | – |
| C#CCOC(=O)[C@]1(C)CC[C@@H](Cc2ccc(Cl)cc2)[C@]1(O)Cn1cncn1 (racemic) [Compound I-5, 2-propynyl-(1RS,2RS,3SR)-3-(4-chlorobenzyl)-2-hydroxy-1-methyl-2-(1H-1,2,4-triazol-1-ylmethyl)cyclopentanecarboxylate] | – | – | 5 (81 to 100) | 5 (hyphal expansion-inhibiting rate: 80% or more) | 5 (hyphal expansion-inhibiting rate: 80% or more) | 5 (Controlling rate: 40 or more) | 5 (hyphal expansion-inhibiting rate: 80% or more) | 5 (hyphal expansion-inhibiting rate: 80% or more) | 5 (hyphal expansion-inhibiting rate: 80% or more) | 5 (hyphal expansion-inhibiting rate: 80% or more) | 5 (hyphal expansion-inhibiting rate: 80% or more) | 5 (hyphal expansion-inhibiting rate: 80% or more) | 5 (hyphal expansion-inhibiting rate: 80% or more) | 5 (hyphal expansion-inhibiting rate: 80% or more) | 5 (hyphal expansion-inhibiting rate: 80% or more) | 1 (60% or more and less than 80%) | 5 (hyphal expansion-inhibiting rate: 80% or more) |
| COC(=O)[C@@]1(CCl)CC[C@H](Cc2ccc(F)cc2)[C@@]1(O)Cn1cncn1 (racemic) [Compound I-78, methyl-(1RS, 2SR,3RS)-3-(4-fluorobenzyl)-1-chloromethyl-2-hydroxy-2-(1H-1,2,4-triazol-1-ylmethyl)cyclopentanecarboxylate] | > 80% | – | 5 (81 to 100) | 5 (hyphal expansion-inhibiting rate: 80% or more) | 5 (hyphal expansion-inhibiting rate: 80% or more) | – | 5 (hyphal expansion-inhibiting rate: 80% or more) | 5 (hyphal expansion-inhibiting rate: 80% or more) | 5 (hyphal expansion-inhibiting rate: 80% or more) | 5 (hyphal expansion-inhibiting rate: 80% or more) | 5 (hyphal expansion-inhibiting rate: 80% or more) | 5 (hyphal expansion-inhibiting rate: 80% or more) | 5 (hyphal expansion-inhibiting rate: 80% or more) | 5 (hyphal expansion-inhibiting rate: 80% or more) | 5 (hyphal expansion-inhibiting rate: 80% or more) | – | – |
| C#CCOC(=O)[C@]1(C)CC[C@H](Cc2ccc(Cl)cc2)[C@@]1(O)Cn1cncn1 (racemic) [Compound I-135, 2-propynyl-(1RS,2SR,3RS)-3-(4-chlorobenzyl)-2-hydroxy-1-methyl-2-(1H-1,2,4-triazol-1-ylmethyl)cyclopentanecarboxylate] | – | – | 5 (81 to 100) | 5 (hyphal expansion-inhibiting rate: 80% or more) | 5 (hyphal expansion-inhibiting rate: 80% or more) | – | 5 (hyphal expansion-inhibiting rate: 80% or more) | 5 (hyphal expansion-inhibiting rate: 80% or more) | 5 (hyphal expansion-inhibiting rate: 80% or more) | 5 (hyphal expansion-inhibiting rate: 80% or more) | 5 (hyphal expansion-inhibiting rate: 80% or more) | 5 (hyphal expansion-inhibiting rate: 80% or more) | 5 (hyphal expansion-inhibiting rate: 80% or more) | 5 (hyphal expansion-inhibiting rate: 80% or more) | 5 (hyphal expansion-inhibiting rate: 80% or more) | – | 5 (hyphal expansion-inhibiting rate: 80% or more) |
